These results are taken from patent US11358952B2, “Substituted 4-aminoisoindoline-1,3-dione compounds, compositions thereof, and methods of treatment therewith” (Celgene Corporation, priority 2018, dated 2022).

For this experiment, the system named is SU-DHL-4 cell line. Briefly: SU-DHL-4 cell proliferation assay (Cell Titer-Glo viability). The experiment is classed as cell-based. The settings on record: Homo sapiens; cell viability IC50 activity level, DLBCL cell line SU-DHL-4, 120 hours post-treatment; read-out: SU-DHL-4 Act. Put shortly:
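Viability read by ATP luminescence (Cell Titer-Glo) at the start and after 120 h of growth at 37°C in 5% CO2. DLBCL cells were seeded at 500 per well with compound across 0.5 nM–10 μM in 20 points, 0.1% DMSO. A four-parameter sigmoidal fit gave IC50 as 50% of DMSO control.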
Background: ATP-based viability assays read luminescence as a measure of living cells.
Consider `O=C1CCC(N2C(=O)c3cccc(NCc4ccc(CN5CC(N6C7CCC6COC7)C5)cc4F)c3C2=O)C(=O)N1` (stereo not drawn) [Cpd 246, 4-(4-((3-(3-oxa-8-azabicyclo[3.2.1]octan-8-yl)azetidin-1-yl)methyl)-2-fluorobenzylamino)-2-(2,6-dioxopiperidin-3-yl)isoindoline-1,3-dione], for which the IC50 was < 200 nM.

With `O=C1CCC(N2C(=O)c3cccc(NCc4ccc(CN5CCC6(CCC6)C5)cc4)c3C2=O)C(=O)N1` (stereo not drawn) [Cpd 73, 4-(4-(6-azaspiro[3.4]octan-6-ylmethyl)benzylamino)-2-(2,6-dioxopiperidin-3-yl)isoindoline-1,3-dione], the IC50 lay within 751 to 1000 nM.

For the molecule `O=C1CCC(N2C(=O)c3cccc(NCc4ccc(CN5CCC(O)(C(F)(F)F)CC5)cc4)c3C2=O)C(=O)N1` (stereo not drawn) [Cpd 130, 2-(2,6-dioxopiperidin-3-yl)-4-(4-((4-hydroxy-4-(trifluoromethyl)piperidin-1-yl)methyl)benzylamino)isoindoline-1,3-dione], the IC50 lay within 751 to 1000 nM.

Regarding `CCS(=O)(=O)C1CCN(Cc2ccc(CNc3cccc4c3C(=O)N(C3CCC(=O)NC3=O)C4=O)c(F)c2)CC1` (stereo not drawn) [Cpd 173], the IC50 is < 200 nM.

Regarding `O=C1CCC(N2C(=O)c3cccc(NCc4ccc(CN5CC6(CCCO6)C5)cc4F)c3C2=O)C(=O)N1` (stereo not drawn) [Cpd 230, 4-(4-(5-oxa-2-azaspiro[3.4]octan-2-ylmethyl)-2-fluorobenzylamino)-2-(2,6-dioxopiperidin-3-yl)isoindoline-1,3-dione], the IC50 was < 200 nM.

As to `O=C1CCC(N2C(=O)c3cccc(NCc4ccc(CN5CCN(C(=O)c6ccccc6F)CC5)cc4F)c3C2=O)C(=O)N1` (stereo not drawn) [Cpd 188, 2-(2,6-dioxopiperidin-3-yl)-4-(2-fluoro-4-((4-(2-fluorobenzoyl)piperazin-1-yl)methyl)benzylamino)isoindoline-1,3-dione], the IC50 was 751 to 1000 nM.

Regarding `CC1(C)CCC2(CCN(Cc3ccc(CNc4cccc5c4C(=O)N(C4CCC(=O)NC4=O)C5=O)c(F)c3)CC2)O1` (stereo not drawn) [Cpd 145, 4-(4-((2,2-dimethyl-1-oxa-8-azaspiro[4.5]decan-8-yl)methyl)-2-fluorobenzylamino)-2-(2,6-dioxopiperidin-3-yl)isoindoline-1,3-dione], the IC50 is < 200 nM.

Consider `CC(C)S(=O)(=O)N1CCN(Cc2ccc(CNc3cccc4c3C(=O)N(C3CCC(=O)NC3=O)C4=O)c(F)c2)CC1` (stereo not drawn) [Cpd 175, 2-(2,6-dioxopiperidin-3-yl)-4-(2-fluoro-4-((4-(isopropylsulfonyl)piperazin-1-yl)methyl)benzylamino)isoindoline-1,3-dione], for which the IC50 was < 200 nM.

For `N#Cc1cccc(C2CN(Cc3ccc(CNc4cccc5c4C(=O)N(C4CCC(=O)NC4=O)C5=O)cc3)C2)c1` (stereo not drawn) [Cpd 15, 3-(1-(4-((2-(2,6-dioxopiperidin-3-yl)-1,3-dioxoisoindolin-4-ylamino)methyl)benzyl)azetidin-3-yl)benzonitrile], the IC50 was 751 to 1000 nM.
